According to patent US20040171680A1, “Treating Syndrome X with substituted tetralins and indanes” (priority 2002, published 2004):
Where two headings read alike, the source gives them in different places.

What was measured:
PPARγ = target: T1, PPARγ (Homo sapiens, UniProt P37231); test: aP2 Assay for PPAR gamma Agonists (bDNA aP2 mRNA in preadipocytes); type: cell-based; conditions: for PPARγ FI: fold induction, PPARγ standard: FI = 70.3; for EC50: values in square brackets
T1 construct: Following the challenge of the preadipocytes, cells may be lysed with lysis buffer; endogenous in cells; host or cells: preadipocytes
T1 sequence (P37231 1-505): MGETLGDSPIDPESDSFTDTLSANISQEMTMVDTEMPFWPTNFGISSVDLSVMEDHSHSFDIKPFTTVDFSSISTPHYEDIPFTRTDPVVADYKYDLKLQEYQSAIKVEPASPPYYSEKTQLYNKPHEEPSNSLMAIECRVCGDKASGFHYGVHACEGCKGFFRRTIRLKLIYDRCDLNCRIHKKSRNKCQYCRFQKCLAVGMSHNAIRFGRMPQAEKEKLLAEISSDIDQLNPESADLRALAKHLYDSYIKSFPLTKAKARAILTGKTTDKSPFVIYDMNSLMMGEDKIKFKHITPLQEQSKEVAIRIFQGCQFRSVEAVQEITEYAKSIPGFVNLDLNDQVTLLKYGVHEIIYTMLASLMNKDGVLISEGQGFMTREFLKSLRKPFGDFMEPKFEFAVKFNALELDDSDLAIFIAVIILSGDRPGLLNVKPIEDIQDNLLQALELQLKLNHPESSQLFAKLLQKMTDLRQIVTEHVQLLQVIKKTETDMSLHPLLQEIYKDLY
Description: aP2 Assay for PPAR gamma Agonists
The procedure is described in detail in Burris et al., Molecular Endocrinology, 1999, 13:410, which is hereby incorporated by reference in its entirety, and aP2 assay results of agonist intrinsic activity may be presented as fold increase over vehicle in induction of aP2 mRNA production.
Twenty-four hours after the initial seeding of the 96-well plates by hand (around 20,000/well), the differentiation assay may be initiated. Medium may be removed and replaced with […] of differentiation medium containing vehicle (DMSO) or test compounds. Cells may be returned to incubator for 24 hours culture. At the termination of the challenge, medium may be removed and 100 ul of lysis buffer may be added to initiate the bDNA aP2 mRNA assay. The branched DNA assay may be performed according to the manufacturer's protocol (Bayer Diagnostics; Emeryville, Calif.). Result may be expressed as the fold increase of aP2 mRNA production activated over vehicle controls. EC50's and Emax may be determined by non-linear regression with a sigmoidal fit curve.
Following the challenge of the preadipocytes, cells may be lysed with lysis buffer (Bayer Diagnostics) containing the aP2 oligonucleotides. After a 15 minute incubation at 53° C. or 30 minutes at 37° C. incubator, 70 ul of the lysis buffer from each well may be added to a corresponding capture well (preincubated with 70 ul of blocking buffer (Bayer Diagnostics)). The capture plate may be incubated overnight at 53° C. in a plate incubator (Bayer Diagnostics). After this incubation, the bDNA and labeled probes may be annealed as directed by the manufacturer. Following a 30-minute incubation with the luminescent alkaline phosphatase substrate, dioxitane, the luminescence may be quantitated in a Dynex MLX microtiter plate luminometer. Oligonucleotide probes designed to anneal to the aP2 mRNA and function in the bDNA mRNA detection system are designed with ProbeDesigner software (Bayer Diagnostics). This software package analyzes a target sequence of interest with a series of algorithms in order to determine which regions of the sequence can perform as locations for capture, label, or spacer probe annealing. The sequences of the oligonucleotides are as follows: […]

PPARα = target: T2, PPARα (Rattus norvegicus, UniProt P37230); test: HD bDNA Assay (HD gene induction); type: cell-based; conditions: in section F; target not named there, values match the PPARα column; read-out: EC50
T2 construct: H4IIE rat hepatoma cell line was obtained from ATCC; host or cells: H4IIE rat hepatoma cells
T2 sequence (P37230 1-468): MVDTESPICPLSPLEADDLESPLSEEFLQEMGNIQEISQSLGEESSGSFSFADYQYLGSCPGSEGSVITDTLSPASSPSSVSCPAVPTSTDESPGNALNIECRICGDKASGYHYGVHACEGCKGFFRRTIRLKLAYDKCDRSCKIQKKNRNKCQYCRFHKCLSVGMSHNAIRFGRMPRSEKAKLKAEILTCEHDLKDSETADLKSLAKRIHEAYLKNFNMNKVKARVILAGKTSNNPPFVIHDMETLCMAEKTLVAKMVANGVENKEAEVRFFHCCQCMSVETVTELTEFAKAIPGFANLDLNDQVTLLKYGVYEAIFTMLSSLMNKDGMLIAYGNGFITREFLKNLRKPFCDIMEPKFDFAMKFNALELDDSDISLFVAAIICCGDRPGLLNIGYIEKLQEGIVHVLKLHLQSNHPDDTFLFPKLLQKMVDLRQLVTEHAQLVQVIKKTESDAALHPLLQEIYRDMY
Procedure: HD bDNA Assay H4IIE rat hepatoma cell line was obtained from ATCC. Cells were cultured in 175 cm^2 tissue culture flask or seeded in 96-well plate with (high serum content, 10% fetal bovine serum and 10% calf serum) culture medium and maintained at 37° C. and 5% CO2 throughout study. Twenty-four hours after the initial seeding of the 96-well plate by hand (approximate 100,000/well), the HD gene induction assay was initiated. Media was removed and replaced with 100 ul of low serum culture media (5% charcoal/dextran treated calf serum) containing vehicle (DMSO) or test compounds or standard. Cells returned to incubator for 24 hours culture. At the termination of the challenge, 50 ul lysis buffer with HD gene specific CE, LE, BL probes was added directly into each well to initiate the bDNA HD mRNA assay. The branched DNA assay was performed according to the manufacturer's protocol (Bayer Diagnostics; Emeryville. Calif.). At the end of the assay, the luminescence was quantitated in Dynex MLX microtiter plate luminometer. EC50's were determined by non-linear regression with a sigmoidal fit utilizing Graphpad Prism.

db/db mice = test: Oral dosing in female db/db mice; type: in vivo; conditions: Mus musculus, 120 h, 1.0 mpk, 5 day oral dosing, % change compared to vehicle
Procedure: The compound was prepared as suspensions in 0.5% hydroxypropylmethylcellulose (Dow Chemical, Midland, Mich.). The dosing volume was 10 mL/kg of body weight. […] Body weight was measured in the mornings on Day 1, prior to dosing, and on Day 12 before bleeding. 18-24 hours after the final dose for each group, the mice were anesthetized with CO2/O2 (70:30) and bled by retro-orbital sinus puncture into micro-tubes containing clog activator and then put in ice. The serum samples were prepared by centrifugation. Serum glucose and triglycerides were determined by using COBAS Mira Plus blood chemistry analyzer (Roche Diagnostics, N.J.). Serum insulin was measured by using ALPCO insulin ELISA kit.
Statistical analysis was performed using the program Prism (Graphpad, Monrovia, Calif.) and performing one-way ANOVA with a Dunnet's multiple comparison test.

PPARδ = target: T3, PPARδ (Homo sapiens, UniProt Q03181); test: Transfection Assay for PPARδ Receptors (PPAR-Gal4 / Gal4-Luciferase reporter in HEK293 cells); type: cell-based; conditions: for EC50: values in square brackets
T3 construct: a Gal4-Luciferase reporter is co-transfected
T3 sequence (Q03181 171-441 limits assumed): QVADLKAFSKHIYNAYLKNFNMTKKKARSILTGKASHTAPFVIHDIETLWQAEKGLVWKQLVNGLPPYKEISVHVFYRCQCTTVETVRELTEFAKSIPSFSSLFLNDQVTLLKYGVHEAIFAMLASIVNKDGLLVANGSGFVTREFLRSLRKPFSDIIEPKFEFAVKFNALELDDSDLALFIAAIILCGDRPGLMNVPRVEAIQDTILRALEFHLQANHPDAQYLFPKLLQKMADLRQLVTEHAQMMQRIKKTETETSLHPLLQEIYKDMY
Procedure: Transfection Assay for PPARδ Receptors
HEK293 cells were grown in DMEM/F-12 Media supplemented with 10% FBS and glutamine (GIBCOBRL). The cells were co-transfected with DNA for PPAR-Gal4 receptor and Gal4-Luciferase Reporter using the DMRIE-C Reagent. On the following day, the DNA-containing medium were replaced with 5% Charcoal treated FBS growth medium. After six hours, cells were seeded in 96 well plate and incubated at 37° C. in CO2 incubator overnight. Cells were challenged by test compounds and incubated for 24 hours at 37° C. in 5% CO2 incubator. Luciferase activity was assayed using the Steady-Glo Luciferase Assay Kit from Promega. DMRIE-C Reagent was purchased from GIBCO Cat. No.10459-014. OPTI-MEM I Reduced Serum Medium was purchased from GIBCO Cat. No. 31985. Steady-Glo Luciferase Assay Kit was obtained from Promega Part# E254B.

## CCN(C(=O)Nc1ccc(SC(F)(F)F)cc1)C1Cc2ccc(SC(C)(C)C(=O)O)cc2C1 (stereo not shown) [Example 4, 2-{2-[1-Ethyl-3-(4-trifluoromethylsulfanylphenyl)ureido]indan-5-ylsulfanyl}-2-methylpropionic acid]
PPARγ
  PPARγ FI: 3.7
PPARα
  EC50: 37 nM
db/db mice; read-out: Δ BW
  change in vivo at 1 mg/kg: -11%
db/db mice; read-out: Δ Plasma Glucose
  change in vivo at 1 mg/kg: -49%
db/db mice; read-out: Δ Plasma Insulin
  change in vivo at 1 mg/kg: -13%
db/db mice; read-out: Δ Plasma TG
  change in vivo at 1 mg/kg: -47%

## CCCCCCN(C(=O)Nc1ccc(OC(F)(F)F)cc1)C1Cc2ccc(SC(C)(C)C(=O)O)cc2C1 (stereo not shown) [Example 14, 2-Methyl-2-{2-[1-hexyl-3-(4-trifluoromethoxyphenyl)ureido]indan-5-ylsulfanyl}propionic acid]
PPARγ
  PPARγ FI: 0.3
PPARα
  EC50: 213 nM
PPARδ; fold induction, PPARδ standard: FI = 36.1
  PPARδ FI: 1.3

## CCCN(C(=O)Nc1ccc(OC(F)(F)F)cc1)C1Cc2ccc(SC(C)(C)C(=O)O)cc2C1 (stereo not shown) [Example 16, 2-Methyl-2-{2-[1-propyl-3-(4-trifluoromethoxyphenyl)ureido]indan-5-ylsulfanyl}propionic acid]
PPARγ
  PPARγ FI: 0.37
PPARα
  EC50: 158 nM

## CCCCN(C(=O)Nc1ccc(SC(F)(F)F)cc1)C1Cc2ccc(SC(C)(C)C(=O)O)cc2C1 (stereo not shown) [Example 17, 2-Methyl-2-{2-[1-butyl-3-(4-trifluoromethylsulfanylphenyl)ureido]indan-5-ylsulfanyl}propionic acid]
PPARγ
  PPARγ FI: 0.43
PPARα
  EC50: 160 nM

## CC(C)(Sc1ccc2c(c1)CC(NC(=O)Nc1ccc(OC(F)(F)F)cc1)C2)C(=O)O (stereo not shown) [Example 18, 2-Methyl-2-{2-[3-(4-trifluoromethoxyphenyl)ureido]indan-5-ylsulfanyl}propionic acid]
PPARγ
  PPARγ FI: 0.31
PPARα
  EC50: 135 nM

## CC(C)CCN(C(=O)Nc1ccc(OC(F)(F)F)cc1)C1Cc2ccc(SC(C)(C)C(=O)O)cc2C1 (stereo not shown) [Example 20, 2-Methyl-2-{2-[1-(3-methylbutyl)-3-(4-trifluoromethoxyphenyl)ureido]indan-5-ylsulfanyl}-2-methylpropionic acid]
PPARγ
  PPARγ FI: 0.44
PPARα
  EC50: 106 nM

## CC(C)CCN(C(=O)Nc1ccc(C(C)C)cc1)C1Cc2ccc(SC(C)(C)C(=O)O)cc2C1 (stereo not shown) [Example 21, 2-{2-[3-(4-Isopropylphenyl)-1-(3-methylbutyl)ureido]indan-5-ylsulfanyl}-2-methylpropionic acid]
PPARγ
  PPARγ FI: 0.05
PPARα
  EC50: 106 nM

## CCN(C(=O)Oc1ccc(C)cc1)C1CCc2cc(SC(C)(C)C(=O)O)c(Cl)cc2C1 (stereo not shown) [Example 58, 2-{3-Chloro-6-[(4-methyl-phenoxycarbonyl)-ethyl-amino]-5,6,7,8-tetrahydronaphthalen-2-ylsulfanyl}-2-methyl-propionic acid]
PPARγ
  EC50: > 3000 nM
PPARα
  EC50: 340 nM
PPARδ
  EC50: 613 nM

## CCN(C(=O)Oc1ccc(Cl)cc1)C1CCc2cc(SC(C)(C)C(=O)O)c(Cl)cc2C1 (stereo not shown) [Example 59, 2-{3-Chloro-6-[(4-chloro-phenoxycarbonyl)-ethyl-amino]-5,6,7,8-tetrahydronaphthalen-2-ylsulfanyl}-2-methyl-propionic acid]
PPARγ
  EC50: 1110 nM
PPARα
  EC50: 390 nM
PPARδ
  EC50: 655 nM

## CCN(C(=O)Oc1ccc(OC(F)(F)F)cc1)C1CCc2cc(SC(C)(C)C(=O)O)ccc2C1 (stereo not shown) [Example 60, 2-{6-[Ethyl-(4-trifluoromethoxy-phenoxycarbonyl)-amino]-5,6,7,8-tetrahydronaphthalen-2-ylsulfanyl}-2-methyl-propionic acid]
PPARγ
  EC50: > 3000 nM
PPARα
  EC50: 2 nM
PPARδ
  EC50: > 3000 nM
